Legend:
HSV-1 ICP6 = assay: Expression of viral gene ICP6 after HSV-1 infection of L929 cells (real-time PCR); format: cell-based, herpes simplex virus (HSV)-1; conditions: culture supernatants 5 h post HSV-1 infection
Experimental: Total RNA was extracted using TRIzol Reagent (Invitrogen) from cell pellets. cDNA was synthesized using a Revert Aid First Strand cDNA kit (Thermo Fisher Scientifc). Real-time PCR was performed using corresponding primers and Power SYBR® Green PCR Master Mix (Invitrogen). The data were normalized to GAPDH. The primer sequences are as follows: ICP6 Forward: […] , Reverse: GGT […]; TNFα Forward: […] , Reverse: […]; CCL3 Forward: […] , Reverse: […]; CXCL1 Forward: GCACCC […] , Reverse: […] CAGA; GAPDH Forward: […] , Reverse: […] .
(§1) Cell viability was determined by measuring ATP levels. L, LPS; Z, z-VAD. […] After 5 h, cell viability was determined by measuring ATP levels and ICP6 mRNA expression was detected using viral genome extracted from cell culture supernatant. *P < 0.05. **P < 0.01. ***P < 0.001.

mouse BMDM = assay: LPS/z-VAD-induced expression of inflammatory cytokines in mouse BMDM (Q-PCR); format: cell-based; conditions: 2 h pretreatment, LPS 20 ng/ml plus z-VAD 20 μM, 7 h, mRNA
Experimental: Total RNA was extracted using TRIzol Reagent (Invitrogen) from cell pellets. cDNA was synthesized using a Revert Aid First Strand cDNA kit (Thermo Fisher Scientifc). Real-time PCR was performed using corresponding primers and Power SYBR® Green PCR Master Mix (Invitrogen). The data were normalized to GAPDH. The primer sequences are as follows: ICP6 Forward: […], Reverse: GGT […]; TNFα Forward: […], Reverse: […]; CCL3 Forward: […], Reverse: […]; CXCL1 Forward: GCACCC […], Reverse: […] CAGA; GAPDH Forward: […], Reverse: […].

HT-29 cells = assay: TNF-induced necroptosis in HT-29 cells (cell viability, ATP levels); format: cell-based, human; conditions: 2 h pretreatment, then TNF-α 40 ng/ml, Smac mimetic 100 nM, z-VAD 20 μM for 48 h, focused library, compared to GSK’872
Experimental: (§2) Cells were seeded in 96-well plates and then treated as indicated. The cell viability was determined by assessment of ATP levels using the CellTiter-Glo Luminescent Cell Viability Assay kit following the manufacture’s instructions (Promega). Luminescence was calculated with SpectraMax i3x (Molecular Devices).
To discover novel inhibitors of necroptosis, we designed and synthesized a focused library with novel structures based on the GSK’872 scaffold.
Cell viability was assessed by measuring ATP levels. […] T, TNF-α; S, Smac mimetic; Z, z-VAD.

hERG = hERG (Homo sapiens, UniProt Q12809); assay: hERG inhibition (standard patch clamp); format: cell-based
Experimental: (§3) Cytochrome P450 (CYP) inhibitory potency was determined by industrial standard methods as reported previously ([Dong et al., 2015]). Methods to determine potassium channel hERG inhibition and in vivo pharmacokinetic parameters have been previously published ([Lu et al., 2017]).

human RIPK1 = molecular target: T1, human RIPK1 (Homo sapiens, UniProt Q13546); assay: In vitro kinase activity assay (ADP-Glo), RIPK1; format: biochemical; conditions: at 10 μM; ATP 50 μM, MBP 20 μM
T1 construct: purchased SignalChem
Experimental: The recombinant human RIPK1 or RIPK3 protein was incubated with the control DMSO or the indicated compound for around 15 min in the assay buffer (25 mM HEPES PH7.2, 12.5 mM MnCl2, 5 mM EGTA, 20 mM MgCl2, 12.5 mM β-glycerol phosphate, 2 mM EDTA, and 2 mM DTT). ATP (50 μM) and the substrate MBP (20 μM) were then added to the reaction at room temperature for 2 h. The kinase activity was calculated by the measuring the luminescence after the addition of the ADP-Glo Kinase Assay kit according to the manufacture’s instructions (Promega).
(§4) In vitro kinase activity assays using recombinant RIPK3 and RIPK1 were performed as described in the section “Materials and Methods.” Data represent mean value ± standard deviation. […] NIH3T3-RIPK3 cells were pretreated with indicated compounds for 2 h and subsequently treated with AP20187 (60 nM) for 24 h. Cell viability was determined by measuring ATP levels. […] HeLa-MLKL (1–190) cells were induced by doxycycline (1 μg/ml) for 24 h. Cells were pretreated with indicated compounds for 2 h and subsequently treated with AP20187 (60nM) for 24h. Cell viability was determined by measuring ATP levels. […] (F) MEFs were treated as indicated for 3 h. Cell lysates were harvest and subjected to western-blot analysis for full length and cleaved caspase 3.

CYP2C9 = CYP2C9 (Homo sapiens, UniProt P11712); assay: Cytochrome P450 inhibition, CYP2C9; format: in vitro ADME
Experimental: as §3

[1] = Metabolic stability in rat liver microsomes; format: in vitro ADME
CYP2D6 = CYP2D6 (Homo sapiens, UniProt P10635); assay: Cytochrome P450 inhibition, CYP2D6; format: in vitro ADME
Experimental: as §3

L929 cells = assay: HSV-1-induced necroptosis in L929 cells (cell viability); format: cell-based, mouse; conditions: 2 h pretreatment, 24 h after HSV-1 infection
Experimental: as §2, §1

MEFs = assay: Activation of caspase-3 / apoptosis in MEFs (western blot, cell viability); format: cell-based
Experimental: as §4

RIPK1/RIPK3 complex = molecular target: T2, RIPK1/RIPK3 complex (Homo sapiens, UniProt Q9Y572); assay: RIPK1/RIPK3 necrosome formation in HT-29 cells stably expressing Flag-RIPK3 (immunoprecipitation); format: cell-based; conditions: TNF-α/Smac/z-VAD 8 h
T2 construct: expressed in transfected cells; host or cells: HT-29 (W46), gift of Dr. Xiaodong Wang
Experimental: The cell pellets were harvested and dissolved in lysis buffer (20 mM Tris–HCl, pH 7.4 150 mM NaCl, 1% Triton X-100, 1 mM Na3VO4, 10% glycerol, 25 mM β-glycerol-phosphate, 0.1 mM PMSF, with the Sigma phosphatase inhibitors and the Roche Pierce protease inhibitor set). The re-suspended cell pellet was then incubated on ice for 20 min, followed by centrifugation at 13000 × g for 20 min at 4°C. The supernatants were collected and protein concentrations were measured using the BCA Protein Assay Kit (Thermo Fisher Scientifc, United States). Finally, cell lysates were subjected for western-blot analysis of the indicated antibodies.
Cell lysates were prepared for immunoprecipitation using an anti-Flag antibody. The levels of RIPK3 and RIPK1 in the immunocomplex were determined by western blot analysis.

Chain of CYP2D6 (P10635 whole entry): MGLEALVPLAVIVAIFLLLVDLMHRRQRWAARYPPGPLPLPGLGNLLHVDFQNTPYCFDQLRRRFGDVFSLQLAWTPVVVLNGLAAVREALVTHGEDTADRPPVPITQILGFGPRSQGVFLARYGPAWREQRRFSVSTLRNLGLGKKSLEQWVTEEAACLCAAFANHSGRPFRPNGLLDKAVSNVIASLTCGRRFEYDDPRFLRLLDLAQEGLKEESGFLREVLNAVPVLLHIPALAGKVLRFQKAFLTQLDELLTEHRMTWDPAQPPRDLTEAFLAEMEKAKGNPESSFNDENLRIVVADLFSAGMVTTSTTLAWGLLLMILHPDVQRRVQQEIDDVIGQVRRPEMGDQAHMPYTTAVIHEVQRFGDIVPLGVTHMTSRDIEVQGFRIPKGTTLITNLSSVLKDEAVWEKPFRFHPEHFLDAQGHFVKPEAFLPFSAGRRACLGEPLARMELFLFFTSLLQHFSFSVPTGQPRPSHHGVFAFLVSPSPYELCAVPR
Chain of CYP2C9 (P11712 whole entry): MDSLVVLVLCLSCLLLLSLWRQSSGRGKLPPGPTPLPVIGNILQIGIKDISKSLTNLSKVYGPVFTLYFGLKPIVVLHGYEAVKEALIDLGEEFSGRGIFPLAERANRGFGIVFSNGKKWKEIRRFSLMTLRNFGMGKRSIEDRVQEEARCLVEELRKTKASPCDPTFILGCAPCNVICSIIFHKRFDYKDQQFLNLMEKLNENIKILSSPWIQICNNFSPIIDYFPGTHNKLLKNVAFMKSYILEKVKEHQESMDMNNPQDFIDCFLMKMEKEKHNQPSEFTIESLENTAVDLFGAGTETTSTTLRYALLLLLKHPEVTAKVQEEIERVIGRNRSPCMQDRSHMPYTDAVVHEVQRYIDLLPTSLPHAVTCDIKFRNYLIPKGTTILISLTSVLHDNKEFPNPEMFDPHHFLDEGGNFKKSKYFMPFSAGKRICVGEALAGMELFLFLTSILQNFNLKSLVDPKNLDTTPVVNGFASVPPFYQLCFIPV
T2 sequence (Q9Y572 whole entry): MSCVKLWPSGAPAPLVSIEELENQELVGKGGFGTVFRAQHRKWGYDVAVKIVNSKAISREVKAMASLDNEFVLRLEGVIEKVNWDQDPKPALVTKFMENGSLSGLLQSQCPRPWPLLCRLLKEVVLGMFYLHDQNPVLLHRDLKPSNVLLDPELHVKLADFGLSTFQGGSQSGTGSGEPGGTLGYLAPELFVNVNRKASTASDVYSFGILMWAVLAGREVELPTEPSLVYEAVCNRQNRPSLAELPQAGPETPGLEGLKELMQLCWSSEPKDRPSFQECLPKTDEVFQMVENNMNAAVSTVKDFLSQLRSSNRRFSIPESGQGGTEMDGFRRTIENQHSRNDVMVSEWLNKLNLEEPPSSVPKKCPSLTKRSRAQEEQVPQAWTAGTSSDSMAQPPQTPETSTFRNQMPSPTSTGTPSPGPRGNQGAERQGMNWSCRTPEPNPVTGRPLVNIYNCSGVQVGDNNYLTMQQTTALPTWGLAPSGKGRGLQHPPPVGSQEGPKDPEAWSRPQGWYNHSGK
T2 sequence (Q13546 whole entry partner): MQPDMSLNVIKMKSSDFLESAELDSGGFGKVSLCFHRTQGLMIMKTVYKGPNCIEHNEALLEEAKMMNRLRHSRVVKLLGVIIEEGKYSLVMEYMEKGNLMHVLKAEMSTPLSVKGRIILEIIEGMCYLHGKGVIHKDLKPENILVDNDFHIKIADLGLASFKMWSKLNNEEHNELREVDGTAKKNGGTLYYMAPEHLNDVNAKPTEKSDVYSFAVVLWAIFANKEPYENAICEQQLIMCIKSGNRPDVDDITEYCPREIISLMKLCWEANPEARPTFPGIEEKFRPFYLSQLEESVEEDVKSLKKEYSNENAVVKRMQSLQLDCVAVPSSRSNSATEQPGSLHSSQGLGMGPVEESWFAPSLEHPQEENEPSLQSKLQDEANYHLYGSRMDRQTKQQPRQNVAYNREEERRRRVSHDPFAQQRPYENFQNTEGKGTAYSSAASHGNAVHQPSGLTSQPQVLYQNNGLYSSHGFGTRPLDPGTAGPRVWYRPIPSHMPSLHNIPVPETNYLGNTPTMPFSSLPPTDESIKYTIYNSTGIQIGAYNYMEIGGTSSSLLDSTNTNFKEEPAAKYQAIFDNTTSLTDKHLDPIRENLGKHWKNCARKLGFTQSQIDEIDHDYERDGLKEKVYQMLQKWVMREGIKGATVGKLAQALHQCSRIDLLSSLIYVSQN
Chain of hERG (Q12809 whole entry): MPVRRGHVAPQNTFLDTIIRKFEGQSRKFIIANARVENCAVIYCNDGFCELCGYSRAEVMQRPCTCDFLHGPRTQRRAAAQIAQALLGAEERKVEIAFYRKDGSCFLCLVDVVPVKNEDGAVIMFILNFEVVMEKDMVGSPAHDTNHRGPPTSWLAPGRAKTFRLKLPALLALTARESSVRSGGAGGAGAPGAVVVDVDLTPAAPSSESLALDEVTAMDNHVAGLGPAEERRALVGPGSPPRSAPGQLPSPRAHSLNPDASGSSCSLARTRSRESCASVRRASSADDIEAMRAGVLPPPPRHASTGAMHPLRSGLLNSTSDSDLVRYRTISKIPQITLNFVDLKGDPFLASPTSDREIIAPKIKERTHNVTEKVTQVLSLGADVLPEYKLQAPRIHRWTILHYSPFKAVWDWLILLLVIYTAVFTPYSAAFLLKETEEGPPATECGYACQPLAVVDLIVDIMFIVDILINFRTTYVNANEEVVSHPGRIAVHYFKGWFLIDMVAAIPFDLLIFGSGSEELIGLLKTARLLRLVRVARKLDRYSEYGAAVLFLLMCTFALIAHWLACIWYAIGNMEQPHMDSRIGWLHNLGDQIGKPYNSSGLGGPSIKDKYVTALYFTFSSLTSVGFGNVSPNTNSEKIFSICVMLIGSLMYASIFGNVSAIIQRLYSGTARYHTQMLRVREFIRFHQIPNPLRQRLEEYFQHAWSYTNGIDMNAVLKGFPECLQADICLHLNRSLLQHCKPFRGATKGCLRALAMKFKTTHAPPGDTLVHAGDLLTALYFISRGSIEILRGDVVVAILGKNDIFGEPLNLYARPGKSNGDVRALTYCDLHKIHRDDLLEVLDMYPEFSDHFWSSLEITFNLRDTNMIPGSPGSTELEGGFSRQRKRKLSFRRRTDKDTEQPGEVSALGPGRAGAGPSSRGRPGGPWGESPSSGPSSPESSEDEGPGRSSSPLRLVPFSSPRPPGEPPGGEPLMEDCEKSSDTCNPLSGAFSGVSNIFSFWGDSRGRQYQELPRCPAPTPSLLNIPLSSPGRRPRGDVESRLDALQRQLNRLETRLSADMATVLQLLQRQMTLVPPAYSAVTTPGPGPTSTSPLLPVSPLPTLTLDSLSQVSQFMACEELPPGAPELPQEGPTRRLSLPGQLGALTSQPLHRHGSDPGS
T1 sequence (Q13546 1-327 limits assumed): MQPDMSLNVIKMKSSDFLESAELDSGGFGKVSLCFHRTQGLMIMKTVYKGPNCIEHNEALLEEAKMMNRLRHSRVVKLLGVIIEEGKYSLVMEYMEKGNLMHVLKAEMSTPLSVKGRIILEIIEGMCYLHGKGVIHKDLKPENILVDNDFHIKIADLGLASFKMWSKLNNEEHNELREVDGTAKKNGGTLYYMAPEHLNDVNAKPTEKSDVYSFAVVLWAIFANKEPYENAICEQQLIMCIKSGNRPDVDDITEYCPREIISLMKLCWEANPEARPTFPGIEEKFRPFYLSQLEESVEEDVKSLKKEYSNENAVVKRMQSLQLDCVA

In the case of `O=S1(=O)C=C(C2CC2)c2cc3nccc(Nc4ccc5scnc5c4)c3cc21` [Zharp-99], the “effect on expression of viral gene ICP6” value (HSV-1 ICP6) is reported as “did not affect”, the “LPS/z-VAD-induced expression of inflammatory cytokines including TNFα, CCL3, and CXCL1” value (mouse BMDM) is reported as “could inhibit” and the “inhibition of TNF-induced necroptosis” value (HT-29 cells) is reported as “most efficient inhibitor”. For the same compound, the IC50 (hERG) was > 10 µM, the “effect on RIPK1 kinase activity” value (human RIPK1) was “did not affect” and the “% of CYP inhibiton 2C9” value (CYP2C9; 10 μM) was “did not inhibit”. For the same compound, the inhibition at 10 µM (CYP2C9; human, read-out: % of CYP inhibiton 2C9) was -5.59%, the CLint scaled ([1]; rat liver microsomes) was 67 mL/min/kg and the Clint ([1]; rat liver microsomes) was “moderate”. For the same compound, the half-life ([1]; rat liver microsomes (RLM)) was 37 min, the “% of CYP inhibiton 2D6” value (CYP2D6; 10 μM) was “did not inhibit” and the inhibition at 10 µM (CYP2D6; human, read-out: % of CYP inhibiton 2D6) was -0.44%. The “inhibition of HSV-1 induced necroptosis” value (L929 cells) was “significantly inhibited”, the “induction of apoptosis compared to GSK’872” value (MEFs; MEFs) was “more potent” and the “activation of caspase-3 and cell death” value (MEFs; especially in mouse cells, MEFs treated 3 h (western blot)) was “induced activation of caspase-3 and cell death in a dose-dependent manner”. For the same compound, the RIPK1/RIPK3 necrosome formation (RIPK1/RIPK3 complex) was “did not affect”.

Reference: publication PMC7753040, “Discovery of a Potent RIPK3 Inhibitor for the Amelioration of Necroptosis-Associated Inflammatory Injury” (Frontiers in Cell and Developmental Biology, 2020)
